What was measured:
Assay type in all cases: in vivo
Matricaria inodora [1] = assay: Herbicidal action pre-emergence, greenhouse pot test; conditions: application rate 80 g/ha
Triticum aestivum = assay: Crop compatibility post-emergence, greenhouse pot test
Outline: (§1)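 Greenhouse post-emergence spray at one-leaf stage, 600 L/ha with 0.5% additive. Injury was assessed visually after about 3 weeks as % of untreated control.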

Veronica persica [2] = assay: Herbicidal action post-emergence, greenhouse pot test
Outline: (§2)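 Weeds were sown in sandy loam and grown in a greenhouse for 2 to 3 weeks, then sprayed at the one-leaf stage with WP or EC formulations plus 0.5% additive at 600 L/ha water, at 80 g/ha or lower. Efficacy was scored visually about 3 weeks later against untreated controls.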

Viola tricolor [3] = assay: as above; conditions: application rate 20 g/ha
Outline: as §2

Stellaria media [4] = assay: as above
Outline: as §2

Amaranthus retroflexus [5] = assay: as above
Outline: as §2

Abutilon theophrasti [6] = assay: as above
Outline: as §2

Pharbitis purpurea [7] = assay: as above
Outline: as §2

Polygonum convolvulus [8] = assay: as above
Outline: as §2

Hordeum murinum [9] = assay: as above
Outline: as §2

Setaria viridis [10] = assay: as above
Outline: as §2

Matricaria inodora [11] = assay: as above
Outline: as §2

Echinochloa crus-galli [12] = assay: as above
Outline: as §2

Lolium rigidum [13] = assay: as above
Outline: as §2

Veronica persica [14] = assay: Herbicidal action pre-emergence, greenhouse pot test; conditions: application rate 320 g/ha
Outline: (§3)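 Seeds were sown in pots and covered with soil, then compounds formulated as WP or EC were sprayed onto the soil surface as aqueous suspension or emulsion with 0.5% additive at 600 L/ha water, 320 g/ha or lower. After about 3 weeks in the greenhouse, efficacy was scored visually as % versus untreated controls.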

Viola tricolor [15] = assay: as above; conditions: application rate 320 g/ha
Outline: as §3

Avena fatua = assay: as above; conditions: application rate 320 g/ha
Outline: as §3

Stellaria media [16] = assay: as above; conditions: application rate 80 g/ha
Outline: as §3

Amaranthus retroflexus [17] = assay: as above; conditions: application rate 80 g/ha
Outline: as §3

Abutilon theophrasti [18] = assay: as above; conditions: application rate 320 g/ha
Outline: as §3

Pharbitis purpurea [19] = assay: as above; conditions: application rate 320 g/ha
Outline: as §3

Polygonum convolvulus [20] = assay: as above; conditions: application rate 320 g/ha
Outline: as §3

Cyperus esculentus = assay: as above; conditions: application rate 320 g/ha
Outline: as §3

Hordeum murinum [21] = assay: as above; conditions: application rate 320 g/ha
Outline: as §3

Setaria viridis [22] = assay: as above; conditions: application rate 320 g/ha
Outline: as §3

Echinochloa crus-galli [23] = assay: as above; conditions: application rate 320 g/ha
Outline: as §3

Lolium rigidum [24] = assay: as above; conditions: application rate 320 g/ha
Outline: as §3

Alopecurus myosuroides [25] = assay: as above; conditions: application rate 320 g/ha
Outline: as §3

Alopecurus myosuroides [26] = assay: Herbicidal action post-emergence, greenhouse pot test; conditions: application rate 20 g/ha, scored visually after about 3 weeks vs untreated controls
Outline: as §2

Digitaria sanguinalis = assay: as above; conditions: application rate 20 g/ha
Zea mays = assay: Crop compatibility post-emergence, greenhouse pot test; conditions: application rate 5 g/ha
Outline: as §1

Oryza sativa = assay: as above; conditions: application rate 5 g/ha
Outline: as §1

`CC(Sc1cc(-n2c(=O)cc(C(F)(F)F)n(C)c2=O)c(F)cc1Cl)C(=O)OCCC(=O)OC(C)(C)C` (stereo not shown) [I.1-5] was tested, and the “Matricaria inodora (Efficacy in %)” value (Matricaria inodora [1]) was 100%, the “Triticum aestivum (Efficacy in %)” value (Triticum aestivum; application rate 80 g/ha) was 20% and the “Veronica persica (Efficacy in %)” value (Veronica persica [2]; application rate 80 g/ha) was 100%. The “Viola tricolor (Efficacy in %)” value (Viola tricolor [3]) was 100%, the “Stellaria media (Efficacy in %)” value (Stellaria media [4]; application rate 80 g/ha) was 100% and the “Amaranthus retroflexus (Efficacy in %)” value (Amaranthus retroflexus [5]; application rate 80 g/ha) was 100%. The “Abutilon theophrasti (Efficacy in %)” value (Abutilon theophrasti [6]; application rate 80 g/ha) was 100%, the “Pharbitis purpurea (Efficacy in %)” value (Pharbitis purpurea [7]; application rate 80 g/ha) was 100% and the “Polygonum convolvulus (Efficacy in %)” value (Polygonum convolvulus [8]; application rate 80 g/ha) was 100%. For the same compound, the “Hordeum murinum (Efficacy in %)” value (Hordeum murinum [9]; application rate 80 g/ha) was 80%, the “Setaria viridis (Efficacy in %)” value (Setaria viridis [10]; application rate 80 g/ha) was 100% and the “Matricaria inodora (Efficacy in %)” value (Matricaria inodora [11]; application rate 80 g/ha) was 100%. For the same compound, the “Echinochloa crus-galli (Efficacy in %)” value (Echinochloa crus-galli [12]; application rate 80 g/ha) was 100%, the “Lolium rigidum (Efficacy in %)” value (Lolium rigidum [13]; application rate 80 g/ha) was 80% and the “Veronica persica (Efficacy in %)” value (Veronica persica [14]) was 100%. The “Viola tricolor (Efficacy in %)” value (Viola tricolor [15]) was 100%, the “Avena fatua (Efficacy in %)” value (Avena fatua) was 100% and the “Stellaria media (Efficacy in %)” value (Stellaria media [16]) was 100%. For the same compound, the “Amaranthus retroflexus (Efficacy in %)” value (Amaranthus retroflexus [17]) was 100%, the “Abutilon theophrasti (Efficacy in %)” value (Abutilon theophrasti [18]) was 100% and the “Pharbitis purpurea (Efficacy in %)” value (Pharbitis purpurea [19]) was 100%. For the same compound, the “Polygonum convolvulus (Efficacy in %)” value (Polygonum convolvulus [20]) was 100%, the “Cyperus esculentus (Efficacy in %)” value (Cyperus esculentus) was 80% and the “Hordeum murinum (Efficacy in %)” value (Hordeum murinum [21]) was 100%. The “Setaria viridis (Efficacy in %)” value (Setaria viridis [22]) was 100%, the “Echinochloa crus-galli (Efficacy in %)” value (Echinochloa crus-galli [23]) was 100% and the “Lolium rigidum (Efficacy in %)” value (Lolium rigidum [24]) was 100%. For the same compound, the “Alopecurus myosuroides (Efficacy in %)” value (Alopecurus myosuroides [25]) was 100%.
With `CC(Sc1cc(-n2c(=O)cc(C(F)(F)F)n(C)c2=O)c(F)cc1Cl)C(=O)OCC(=O)OCc1ccccc1` (stereo not shown) [I.1-46] the “Triticum aestivum (Efficacy in %)” value (Triticum aestivum; application rate 20 g/ha) was 20%, the “Veronica persica (Efficacy in %)” value (Veronica persica [2]; application rate 20 g/ha) was 100% and the “Viola tricolor (Efficacy in %)” value (Viola tricolor [3]) was 100%. For the same compound, the “Stellaria media (Efficacy in %)” value (Stellaria media [4]; application rate 20 g/ha) was 100%, the “Amaranthus retroflexus (Efficacy in %)” value (Amaranthus retroflexus [5]; application rate 20 g/ha) was 100% and the “Abutilon theophrasti (Efficacy in %)” value (Abutilon theophrasti [6]; application rate 20 g/ha) was 100%. The “Pharbitis purpurea (Efficacy in %)” value (Pharbitis purpurea [7]; application rate 20 g/ha) was 100%, the “Polygonum convolvulus (Efficacy in %)” value (Polygonum convolvulus [8]; application rate 20 g/ha) was 100% and the “Hordeum murinum (Efficacy in %)” value (Hordeum murinum [9]; application rate 20 g/ha) was 100%. For the same compound, the “Setaria viridis (Efficacy in %)” value (Setaria viridis [10]; application rate 20 g/ha) was 100%, the “Matricaria inodora (Efficacy in %)” value (Matricaria inodora [11]; application rate 20 g/ha) was 100% and the “Echinochloa crus-galli (Efficacy in %)” value (Echinochloa crus-galli [12]; application rate 20 g/ha) was 100%. For the same compound, the “Lolium rigidum (Efficacy in %)” value (Lolium rigidum [13]; application rate 20 g/ha) was 80%, the “Alopecurus myosuroides (Efficacy in %)” value (Alopecurus myosuroides [26]) was 80% and the “Digitaria sanguinalis (Efficacy in %)” value (Digitaria sanguinalis) was 100%.
In the case of `COC(=O)C1(OC(=O)C(C)Sc2cc(-n3c(=O)cc(C(F)(F)F)n(C)c3=O)c(F)cc2Cl)CC1` (stereo not shown) [I.1-102], the “Zea mays (Efficacy in %)” value (Zea mays) is reported as 0%, the “Oryza sativa (Efficacy in %)” value (Oryza sativa) is reported as 0% and the “Veronica persica (Efficacy in %)” value (Veronica persica [2]; application rate 20 g/ha) is reported as 100%. The “Viola tricolor (Efficacy in %)” value (Viola tricolor [3]) was 100%, the “Stellaria media (Efficacy in %)” value (Stellaria media [4]; application rate 20 g/ha) was 80% and the “Amaranthus retroflexus (Efficacy in %)” value (Amaranthus retroflexus [5]; application rate 20 g/ha) was 100%. The “Abutilon theophrasti (Efficacy in %)” value (Abutilon theophrasti [6]; application rate 20 g/ha) was 100%, the “Pharbitis purpurea (Efficacy in %)” value (Pharbitis purpurea [7]; application rate 20 g/ha) was 100% and the “Polygonum convolvulus (Efficacy in %)” value (Polygonum convolvulus [8]; application rate 20 g/ha) was 100%. For the same compound, the “Hordeum murinum (Efficacy in %)” value (Hordeum murinum [9]; application rate 20 g/ha) was 100%, the “Setaria viridis (Efficacy in %)” value (Setaria viridis [10]; application rate 20 g/ha) was 100% and the “Matricaria inodora (Efficacy in %)” value (Matricaria inodora [11]; application rate 20 g/ha) was 100%. The “Echinochloa crus-galli (Efficacy in %)” value (Echinochloa crus-galli [12]; application rate 20 g/ha) was 100%, the “Lolium rigidum (Efficacy in %)” value (Lolium rigidum [13]; application rate 20 g/ha) was 80% and the “Digitaria sanguinalis (Efficacy in %)” value (Digitaria sanguinalis) was 100%.

Source: US11274083B2, “Substituted thiophenyl uracils, salts thereof and the use thereof as herbicidal agents” (Syngenta Crop Protection AG, priority 2017, dated 2022)
